Experimental data from patent publication US20160067221A1, “USE OF ERGOTHIONEINE FOR INDUCING ACTIVITY OF NRF2 IN CELL” (China Medical University, priority 2014, published 2016).

What was measured:
Type in all cases: cell-based, human
[1] = system: HaCaT cells; experiment: Cell viability by MTT assay, with or without UVA irradiation
Method: To examine a safety of the ergothioneine and a safe used dose of the ergothioneine to normal cells, HaCaT cells, human keratinocyte cell lines, are treated with different dose of the ergothioneine and then detected a cell viability.
The HaCaT cells are maintained at 37° C. in a humidified atmosphere of 5% CO2 in a culture medium (Dulbecco's modified Eagle medium/high glucose (DMEM) supplemented with 10% heat-inactivated fetal bovine serum (FBS)).
The cell viability is monitored using a method of […] (MTT assay). The HaCaT cells are seeded in a 12-well plate with 1×10^5 cells/well and then maintained at 37° C. in a humidified atmosphere of 5% CO2 untill the HaCaT cells are adhered in the next day. The HaCaT cells are subsequently incubated with or without the ergothioneine, and then maintained at 37° C. in a humidified atmosphere of 5% CO2 for 24 hours, wherein the concentration of the ergothioneine is 125 nM, 250 nM and 500 nM, respectively. Next, the HaCaT cells are washed with phosphate buffered saline (PBS) three times, and then irradiated with the UVA (15 J/cm^2). After the UVA irradiation, the PBS is replaced with the culture medium to culture the HaCaT cells for 4 hours. In next step, the culture medium is removed, the HaCaT cells are washed with PBS thrice, and then 450 μL of 1×MTT agent is added in each well to react at 37° C. in a humidified atmosphere of 5% CO2 for 2 hours. A culture supernatant is removed and re-suspended with 400 μL of isopropanol to dissolve MTT formazan. 200 μL of the supernatant is taken from the well and then added into a 96-well microplate to measure an absorbance at 570 nm.
The cell viability of the HaCaT cells is detected by the MTT assay.

[2] = system: UVA-irradiated HaCaT cells; experiment: Western blot of apoptosis-related proteins (Caspase-3, Caspase-9, Bax, Bcl-2); conditions: 125-500 nM 24 hours prior to UVA 15 J/cm^2, 4 hours
Method: The apoptosis can induce DNA double-strand breaks to generate a DNA fragment, To examine the effect of the ergothioneine on the UVA-induced apoptosis, an apoptotic cell death is measured using a terminal deoxyucleotidyl transferase-meditated dUTP-fluorescein nick end-labeking (TUNEL) assay, and protein expressions of apoptosis-related proteins, Caspase-3, Caspase-9, Bax and Bcl-2, are measured using a Western blot analysis. Therefore, the aforementioned methods in this example can analyze whether pretreating with the ergothioneine improves the UVA-induced apoptosis. […] After incubation, the HaCaT cells are exposed to the UVA (15 J/cm^2), and then incubated for 4 hours. Then, the protein expressions of Caspase-3, Caspase-9, Bax and Bcl-2 are measured using the Western blot analysis. FIG. 6 illustrates the effect of the ergothioneine on the protein expressions of apoptosis-related proteins of the UVA-irradiated HaCaT cells. FIG. 6-(A) represents the Western blot analysis results. FIG. 6-(B) is the quantitative diagram of the protein expressions of Caspase-3 and Caspase-9. FIG. 6-(C) is the quantitative diagram of a Bax/Bcl-2 ratio.

[3] = system: Nrf2; experiment: Western blot in Nrf2 knockdown HaCaT cells (siRNA transfection); conditions: Nrf2 siRNA transfected cells, 500 nM ergothioneine 24 hours
Source text: The Nrf2 is an important transcription factor, the downstream antioxidant enzymes are regulated by the Nrf2 transcription gene. To examine protective effects of the ergothioneine on the HaCaT cells indeed through the Nrf2 activation, we developed an Nrf2 gene knockdown model in the HaCaT cells by a siRNA transfection in this example. Then, the expression of the downstream antioxidant gene is observed to investigate whether the protective properties of the ergothioneine will be affected.
(§1) The siRNA transfection includes steps as follows. The HaCaT cells are seeded in a 6-well plate with 4×10^5 cells/well and then maintained at 37° C. in the humidified atmosphere of 5% CO2 untill the time of the transfection. The day after reaching 40-60% confluence, the culture medium is replaced with 1 mL of FBS-free and antibiotic-free culture medium in each well, and the HaCaT cells are transfected with a siNrf2 or a control siRNA by using Lipofectamine 2000 (Invitrogen, U.S.A.) for 4-6 hours. After the incubation for 4-6 hours, the HaCaT cells are washed with the culture medium supplemented with 10% FBS 2-3 times, and then cultured in the culture medium supplemented with 10% FBS for 12-16 hours.
After the siRNA transfection, the HaCaT cells are treated with 500 nM ergothioneine for 24 hours. After the ergothioneine treatment, the HaCaT cells are subjected to analyses of the protein express on of the Nrf2 in 1 hour post-treatment and the protein expressions of HO-1 γ-GCLC and NQO-1 in 4 hours post-treatment by the Western blot analysis. FIG. 13-(A) illustrates the effect of the ergothioneine on protein expression of the Nrf2 in Nrf2 knockdown HaCaT cells by using the siRNA transfection.

[4] = system: Nrf2 knockdown HaCaT cells; experiment: MTT cell viability in siRNA-transfected HaCaT cells; conditions: 500 nM 24 hours, UVA 15 J/cm^2 4 hours
Method: as §1
The HaCaT cells are incubated with 500 nM ergothioneine for 24 hours after the siRNA transfection.

C[N+](C)(C)[C@@H](Cc1c[nH]c(=S)[nH]1)C(=O)[O-] [ergothioneine, 2-mercapto histidine trimethylbetain]
cell death at respective dose of UVA irradiation ([1]; 500 nM for 2 hours, UVA 5-15 J/cm^2): significantly attenuated
cytotoxic effects (cell viability) ([1]; HaCaT cells, 125-500 nM, 24 hours): does not cause any cytotoxic effects
cell viability ([1]; pretreated with 500 nM, then UVA 15 J/cm^2, cultured 4 hours): 75.5%
UVA-induced cell death ([1]; pretreatment 125-500 nM, UVA 15 J/cm^2): attenuates a UVA-induced cell death in a dose-dependent manner
Bax/Bcl-2 ratio [2]: significantly reduced
protein expression of Caspase-3 [2]: significantly reduced
protein expression of Caspase-9 [2]: significantly reduced
expression of HO-1 [3]: not shown the increased expression
expression of NQO-1 [3]: not shown the increased expression
expression of γ-GCLC [3]: not shown the increased expression
UVA-induced cell death ([4]; Nrf2 siRNA): unable to ameliorate the UVA-induced cell death
UVA-induced cell death ([4]; control siRNA): able to reduce a UVA-induced cell death
